The record followed here is patent publication US20210038742A1, “CONJUGATION OF TLR7 AGONIST TO NANO-MATERIALS ENHANCES THE AGONISTIC ACTIVITY” (priority 2019, published 2021).

For assay [1], the target named is T1, TLR7 (Mus musculus, UniProt P58681).
T1 construct: endogenous in cells; host or cells: mouse bone marrow-derived dendritic cells (BMDCs)
T1 sequence (P58681 27-1050): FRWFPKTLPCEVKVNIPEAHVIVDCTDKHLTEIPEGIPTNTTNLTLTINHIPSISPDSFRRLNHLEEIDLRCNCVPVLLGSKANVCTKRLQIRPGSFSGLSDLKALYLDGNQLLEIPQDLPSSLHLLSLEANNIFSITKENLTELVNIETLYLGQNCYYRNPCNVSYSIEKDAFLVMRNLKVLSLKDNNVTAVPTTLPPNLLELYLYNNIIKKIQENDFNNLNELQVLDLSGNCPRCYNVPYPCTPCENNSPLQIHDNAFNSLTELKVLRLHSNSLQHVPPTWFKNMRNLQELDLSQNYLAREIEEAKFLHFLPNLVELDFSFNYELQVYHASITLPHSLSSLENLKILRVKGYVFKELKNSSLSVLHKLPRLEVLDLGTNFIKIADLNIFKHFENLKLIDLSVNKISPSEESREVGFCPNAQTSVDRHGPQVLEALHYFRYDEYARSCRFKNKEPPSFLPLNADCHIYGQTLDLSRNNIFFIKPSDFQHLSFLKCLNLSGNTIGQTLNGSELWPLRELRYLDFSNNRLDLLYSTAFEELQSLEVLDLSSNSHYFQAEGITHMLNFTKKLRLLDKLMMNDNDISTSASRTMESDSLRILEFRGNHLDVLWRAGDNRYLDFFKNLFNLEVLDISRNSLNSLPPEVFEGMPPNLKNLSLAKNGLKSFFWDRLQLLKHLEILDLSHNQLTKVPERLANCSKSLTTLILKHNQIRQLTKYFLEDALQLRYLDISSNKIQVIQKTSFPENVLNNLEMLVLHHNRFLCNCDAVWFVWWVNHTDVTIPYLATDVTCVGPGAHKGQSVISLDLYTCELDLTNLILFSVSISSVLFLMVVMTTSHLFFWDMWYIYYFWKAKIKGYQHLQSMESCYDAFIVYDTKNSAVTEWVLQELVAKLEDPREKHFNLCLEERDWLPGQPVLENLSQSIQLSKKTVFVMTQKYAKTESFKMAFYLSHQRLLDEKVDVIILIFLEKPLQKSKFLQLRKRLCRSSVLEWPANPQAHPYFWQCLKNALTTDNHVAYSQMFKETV
Briefly: IL-6 release in mouse BMDCs (ELISA). The assay is classed as cell-based. As to the method: (§1) FIGS. 4A-4E. […] Mouse BMDCs or human PBMCs were plated and incubated with serially diluted 1V209 nanoshells conjugates at different coating densities (high, medium, or low density conjugates, unconjugated TLR7 ligand 1V209, or silica nanoshells for 18 hours. Control cells were treated with 1 μM resiquimod or 0.5% DMSO as vehicle. IL-6 (A) and IL-12 (B) released in the culture supernatants of mouse BMDCs were measured using ELISA. (C) Cytotoxicity in BMDCs was measured by MTT assay. (D) IL-6 released in the culture supernatants of human PBMCs. (E) IL-6 released in the culture supernatants BMDCs isolated from TLR7 deficient mice.
(§2) The correlation between TLR7 ligands density and cytokines induction level was further investigated. To test this, mouse bone marrow-derived dendritic cells (BMDCs) or human peripheral blood mononuclear cells (PBMCs) were treated with unconjugated 1V209, SiO2 nanoshells, or 1V209-nanoshell conjugates with different coating densities (high, medium, or low coating densities). The levels of IL-6 and IL-12 release in the culture supernatant were measured. […] Different formula of conjugates were also tested their cytotoxicity in BMDCs. […] To determine whether the immune potency of 1V209-nanoshell conjugates was TLR7 specific, conjugates was performed in TLR7 deficient BMDCs. […] Thus, high coating of TLR7 agonists silica shells are denoted as 1v209-NS conjugates in the following description.
(In general: An ELISA detects its analyte on a solid surface through an enzyme-linked reagent.)

In assay [2] the test system is CT26 tumors. Briefly: CT26 tumor model, intratumoral monotherapy (tumor growth, CD3 IHC, IFN-γ RT-qPCR). The assay is classed as in vivo, mouse. Particulars: single agent. From the text: FIGS. 13A-13F. Tumor growth regression in mice treated with NS-TLR7a. BALB/c mice were implanted with CT26 cells and treatment began when tumors reached 100 mm^3. Mice (n=5/group) were randomized and treated with vehicle (PBS), silica NS, unconjugated agonist (TLR7a), or NS-TLR7a every other day. Tumor tissues were collected on day 10 post treatment for analysis. A) Protocol of treatment. B) Average tumor growth curves per treatment. (C and D) Immunohistochemistry (IHC) images of CD3^+ cells infiltrating into the tumor environments for (C) unconjugated TLR7a or (D) TLR7a-NS conjugates locally injected tumor. (E and F) IFN-γ gene expression level (E) and (F) quantified CD3^+ T cells (F) in tumor samples for vehicle, NS, TLR7a, and TLR7a-NS conjugate treated groups (n=4-5/group). Representative IHC images were shown. […]
Animals and Tumor Model: Mouse colon cancer cell line CT26 (Cat. No. CRL-2638) was purchased from American Type Culture Collection (ATCC). […] Tumor volume was determined by caliper with the formula: volume (mm^3)=(width×width×length)/2. […]
To test the anti-tumor effects of TLR7 with or without conjugation onto silica nanoshells in vivo, silica NS, unconjugated TLR7a (TLR7 agonist), and NS-TLR7a were tested in a CT26 mouse tumor model. […] On day 8, tumors were harvested for immunohistochemistry (IHC) analysis and CD3^+ cells were assessed as T cell population in the tumor microenvironment.
On the technique in general: In qPCR the cycle at which signal appears reflects the starting amount.

The subject of assay [3] is NLRP3 inflammasome. Briefly: IL-1β release in BMDCs (ELISA). The assay is classed as cell-based, mouse. The note with it: supernatant. How it is done:
FIGS. 5A-5C. TLR7 agonist-silica nanoshells conjugates generate high level of IL-1p in BMDCs. 75-2500 nM of TLR7 agonist-silcia shells conjugates were incubated with BMDCs for 24 hours at 37° C., 5% CO2. IL-1β level in supernatant was determined by ELISA. Mechanism figure reference: He, Y. et. al. (2016).
FIG. 24. In vitro IL-1β release of NS-TLR and mixture in BMDCs. 75-2500 nM of NS-TLR (high coating density) and mixture of silica nanoshells and 1V209 were incubated with wild type BMDCs for 18 hours. IL-1p cytokine was measured via ELISA. Dose response curves are in means SD. Data were analyzed by t test.
IL-1β secretion by dendritic cells is mandatory for T cell priming (Ghiringhelli et al., 2009). A two-pronged pathway has been proposed for NLRP3 inflammasome activation in macrophages and DCs. In this model, the first signal is triggered by microbial or endogenous molecules that generate NLRP3 and pro-IL-1p expression through activation of NF-κB; the second signal is triggered by ATP, pore-forming toxins, viral RNA and particulate matters such as silica nanoparticles. […] Resting DCs/macrophages have insufficient NLRP3 in the cells, and therefore, incubating with NLRP3 activator (silica nanoshells) results in no or minimal IL-1β.

For assay [4], the target named is T1, TLR7. Briefly: IL-12 release in mouse BMDCs (ELISA). The assay is classed as cell-based. How it is done:
as §1
FIG. 23. In vitro cytokine induction of NS-TLR in murine cells. Mouse BMDCs (10^5 cells) were plated and incubated with serially diluted 100 nm NS-TLR at different coating densities for 18 hours. IL-12 released in the culture supernatants of mouse BMDCs incubated with unconjugated 1V209, high, medium, low coating density NS-TLR, and silica shells. IL-12 cytokine was measured via ELISA. All data are representative dose response curves in mean±SD with triplicate technical repeats. Data are representative of three independent experiments showing similar results. Data were analyzed by two-way ANOVA with Tukey's post hoc analysis.
as §2

Where [5] appears, read: BMDCs, 18 hours, ELISA, means ± SD.

Usually EC50 stands for the concentration giving half of the maximal effect. Lower therefore signals a more potent agent.

On to `COCCOc1nc(N)c2[nH]c(=O)n(Cc3ccc(C(=O)O)cc3)c2n1` [1V209, 4-[6-Amino-2-(2-methoxyethoxy)-8-oxo-7H-purin-9(8H)-yl]methylbenzoic acid], for which the “Emax, IL-6, normalized to unconjugated 1V209 (=1X)” value in assay [1] is given as 1 ×. For the same molecule, in assay [1] (setting [5]), the EC50 was 1080 ± 101 nM and the “Emax, IL-6” value is 9.9 ± 1.0 ng/mL. In addition, the tumor remission entry in assay [2] is “did not result in tumor remission”. In assay [3], the IL-1β level result is “very low levels or zero”. Also, the “Emax, IL-12, normalized to unconjugated 1V209 (=1X)” value in assay [4] was found to be 1 ×. For the same molecule, in assay [4] (setting [5]), the EC50 stood at 883 ± 193 nM and the “Emax, IL-12” value amounted to 3.2 ± 2.3 ng/mL.
